{"source": "patent US20190292494A1", "about": "“STABILIZATION OF ENZYMES IN COMPOSITIONS” (BASF SE, priority 2016, published 2019)", "assay_type_in_all_cases": "biochemical", "key": {"[1]": {"target": "T1, protease according SEQ ID No: 1 (Lederbergia lenta, UniProt P29599, R99E)", "T1 sequence (P29599 whole entry R99E)": "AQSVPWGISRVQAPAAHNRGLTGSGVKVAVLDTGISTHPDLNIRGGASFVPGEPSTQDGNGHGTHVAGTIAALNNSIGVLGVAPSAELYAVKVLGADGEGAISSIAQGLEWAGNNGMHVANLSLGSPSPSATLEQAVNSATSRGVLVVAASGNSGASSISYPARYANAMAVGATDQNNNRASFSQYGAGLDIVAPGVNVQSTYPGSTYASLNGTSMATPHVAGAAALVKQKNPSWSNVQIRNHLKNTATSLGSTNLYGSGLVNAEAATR", "conditions": "for protease activity: 2.3% (w/w) diol, 4.4 μM 4-FPBA, 4.8 mM Suc-AAPF-pNA, 16 nM protease, pH 7.5, activity with 4-FPBA only = 100%", "protocol": "(§1) Proteolytic activity of proteases has been measured using succinyl-Ala-Ala-Pro-Phe-p-nitroanilide (Suc-AAPF-pNA, short AAPF) as substrate, wherein pNA is cleaved from the substrate molecule by proteolytic cleavage, resulting in release of yellow color of free pNA which was quantified by measuring OD405.\n(§2) If not indicated otherwise, enzymatic activity was measured at 30° C.\n50 mM phosphate buffer (pH 7.5), 4.4 μM 4-FPBA, 4.8 mM Suc-AAPF-pNA, and 16 nM protease according SEQ ID No: 1 with 2.3% w/w diol or without diol.\nThe protease activity was measured in presence of the Suc-AAPF-pNA substrate and the 4-FPBA only, which gives the 100% value in Table A.\nThe protease activity was also measured in the presence of AAPF-pNA substrate, 4-FPBA and 2.3% diol."}, "[2]": {"target": "protease according to SEQ ID No: 1 (Lederbergia lenta, UniProt P29599, R99E)", "sequence (P29599 whole entry R99E)": "as above", "assay": "Storage stability of protease at 45° C. with diol alone (proteolytic activity, Suc-AAPF-pNA)", "conditions": "no boron compound; for stabilization of protease by diol alone during storage (in words): storage at 45° C., 20-50% w/w diol", "protocol": "as §1\nTo test the effect of diol alone towards the storage stability of proteases, a protease according to SEQ ID No: 1 was stored at 45° C. with varying concentrations of Propane-1,2-diol and Pentane-1,2-diol as indicated in Table B. 4% active protease according to SEQ ID No: 1 was present before storage for the assessment of its changes in proteolytic activity during storage.\nProteolytic activity was measured in the presence of 4.8 mM Sus-AAPF-pNa. As buffering system 50 mM phosphate buffer was used (pH 7.5). Before storage (time=0), the protease activity measured was set 100%."}, "[3]": {"target": "T1, protease according SEQ ID No: 1", "conditions": "for protease activity: activity without BBA and diol = 100%", "protocol": "as §1, §2\n50 mM phosphate buffer (pH 7.5), 137 μM BBA, 4.8 mM Suc-AAPF-pNA, and 16 nM protease according SEQ ID No: 1 with 135 mM diol or without diol.\nThe protease activity was measured in presence of the Suc-AAPF-pNA substrate and in the absence of BBA and diol, which gives the 100% value in Table B.\nThe protease activity was measured in presence of the Suc-AAPF-pNA substrate and BBA, which gives the stabilization of protease by BBA—see Table C-I.\nThe protease activity was then measured in presence of the Suc-AAPF-pNA substrate and diol (without BBA), which gives the stabilization of protease by diol—see Table C-II.\nThe protease activity was then measured in presence of the Suc-AAPF-pNA substrate and BBA and diol, which gives the stabilization of protease by BBA and diol—see Table C-III."}, "[4]": {"target": "T1, protease according SEQ ID No: 1", "assay": "Mixtures of diols with 4-FPBA: protease activity (Suc-AAPF-pNA)", "protocol": "as §1, §2\n50 mM phosphate buffer (pH 7.5), 4.4 μM 4-FPBA, 4.8 mM Suc-AAPF-pNA, and 16 nM protease according SEQ ID No: 1 with one or two diols.\nThe protease activity was measured in presence of the Suc-AAPF-pNA substrate and 4-FPBA and one or two diols, which gives the stabilization of protease by 4-FPBA and one or two diols—see Table D.\nThe protease activity in presence of the Suc-AAPF-pNA substrate and 4-FPBA only is set 100%."}}, "note": "Entries after “also recorded” stand apart in the source; their conditions may differ. Like-named read-outs stand apart in the source and are kept apart here."}
{"compound": "CC(O)CO", "note": "(centres unmarked) [Propane-1,2-diol, propane-1,2-diol]", "values": [{"measurement": "protease activity", "setting": "[1]", "value": 91, "unit": "%"}, {"measurement": "proteolytic activity before and after storage", "setting": "[2]; 20% w/w diol, 1 day at 45° C.", "value": 82, "unit": "%"}, {"measurement": "proteolytic activity before and after storage", "setting": "[2]; 20% w/w diol, 3 days at 45° C.", "value": 64, "unit": "%"}, {"measurement": "proteolytic activity before and after storage", "setting": "[2]; 20% w/w diol, 7 days at 45° C.", "value": 46, "unit": "%"}, {"measurement": "proteolytic activity before and after storage", "setting": "[2]; 20% w/w diol, 14 days at 45° C.", "value": 30, "unit": "%"}, {"measurement": "proteolytic activity before and after storage", "setting": "[2]; 20% w/w diol, cero (before storage, set 100%)", "value": 100, "unit": "%"}, {"measurement": "proteolytic activity before and after storage", "setting": "[2]; 30% w/w diol, 1 day at 45° C.", "value": 92, "unit": "%"}, {"measurement": "proteolytic activity before and after storage", "setting": "[2]; 30% w/w diol, 3 days at 45° C.", "value": 80, "unit": "%"}, {"measurement": "proteolytic activity before and after storage", "setting": "[2]; 30% w/w diol, 7 days at 45° C.", "value": 62, "unit": "%"}, {"measurement": "proteolytic activity before and after storage", "setting": "[2]; 30% w/w diol, 14 days at 45° C.", "value": 47, "unit": "%"}, {"measurement": "proteolytic activity before and after storage", "setting": "[2]; 30% w/w diol, cero (before storage, set 100%)", "value": 100, "unit": "%"}, {"measurement": "proteolytic activity before and after storage", "setting": "[2]; 50% w/w diol, 1 day at 45° C.", "value": 94, "unit": "%"}, {"measurement": "proteolytic activity before and after storage", "setting": "[2]; 50% w/w diol, 3 days at 45° C.", "value": 92, "unit": "%"}, {"measurement": "proteolytic activity before and after storage", "setting": "[2]; 50% w/w diol, 7 days at 45° C.", "value": 79, "unit": "%"}, {"measurement": "proteolytic activity before and after storage", "setting": "[2]; 50% w/w diol, 14 days at 45° C.", "value": 66, "unit": "%"}, {"measurement": "proteolytic activity before and after storage", "setting": "[2]; 50% w/w diol, cero (before storage, set 100%)", "value": 100, "unit": "%"}, {"measurement": "stabilization of protease by diol alone during storage (in words)", "setting": "[2]", "value": "stabilize the protease increasingly"}, {"measurement": "protease activity", "setting": "[3]; 135 mM diol with 137 μM BBA", "value": 40, "unit": "%"}, {"measurement": "protease activity", "setting": "[3]; 135 mM diol, without BBA", "value": 94, "unit": "%"}, {"measurement": "protease activity", "setting": "[4]; Propane-1,2-diol 120 mM, Pentane-1,2-diol 0 mM, 4.4 μM 4-FPBA, 4-FPBA only = 100%", "value": 91, "unit": "%"}]}
{"compound": "benzene boronic acid [BBA]", "values": [{"measurement": "protease activity", "setting": "[3]; 137 μM BBA, no diol", "value": 66, "unit": "%"}]}
{"compound": "OCCO", "note": "[Ethylen-1,2-glycol, ethane-1,2-diol]", "values": [{"measurement": "protease activity", "setting": "[1]", "value": 54, "unit": "%"}, {"measurement": "protease activity", "setting": "[3]; 135 mM diol with 137 μM BBA", "value": 43, "unit": "%"}, {"measurement": "protease activity", "setting": "[3]; 135 mM diol, without BBA", "value": 97, "unit": "%"}]}
{"compound": "CCCC(O)CO", "note": "(centres unmarked) [Pentane-1,2-diol, pentane-1,2-diol]", "values": [{"measurement": "inhibitory effect towards proteolytic activity (in words)", "setting": "[1]; diol added to 4-FPBA, compared to the other diols used", "value": "strong inhibitory effect"}, {"measurement": "stabilization of protease by diol alone during storage (in words)", "setting": "[2]", "value": "does not stabilize the protease, but rather destabilizes the protease"}, {"measurement": "stabilization of protease by diol in the presence of BBA (in words)", "setting": "[3]; 135 mM diol with 137 μM BBA", "value": "best increasing effect on stabilization of protease; also recorded: synergistic stabilization"}, {"measurement": "inhibitory effect towards proteolytic activity (in words)", "setting": "[3]; diol alone (135 mM, without BBA), of the diols tested", "value": "best inhibitory effect"}, {"measurement": "stabilization of protease in the presence of 4-FPBA (in words)", "setting": "[4]; of the diols tested, with 4-FPBA", "value": "stabilizes protease best"}]}
